Experimental data: ChEMBL document CHEMBL1151031, “Lipophilic bis-arylsulfonates as inhibitors of the CD4-gp120 interaction” (Bioorg Med Chem Lett, 1996)

What was measured:
[1] = Inhibition of HIV gp120 binding to CD4 receptor using ELISA assay; set-up: species or system Human immunodeficiency virus 1
[2] = Inhibition of gp120 binding to CEM cells in vitro.; assay type: functional, cell-based; conditions: ccrf-cem
CCRF-CEM [3] = assay: Compound was evaluated for the cytotoxicity against CEM cells; assay type: functional; conditions: Homo sapiens, read-out: CD50 (the source's name)
CCRF-CEM [4] = assay: Compound was evaluated for the inhibition of gp120 binding to monoclonal antibodies in CEM cells; Flat dose response; assay type: functional, cell-based, Homo sapiens

SMILES	IC50 [1] [µM]	IC50 [2] [µM]	CC50 (CCRF-CEM [3]) [µM]	IC50 (CCRF-CEM [4])
CCCCCCCCCCCCCCCCC=C(c1cccc2cc(S(=O)(=O)O)ccc12)c1cccc2cc(S(=O)(=O)O)ccc12	192	–	–	–
CC(C)CCCC(C)[C@H]1CC[C@H]2[C@@H]3CCC4C[C@@H](CCC=C(c5cc(Cl)c(O)c(C(=O)O)c5)c5cc(Cl)c(O)c(C(=O)O)c5)CC[C@]4(C)[C@H]3CC[C@]12C (some centres undefined)	18	5	–	–
C[C@]12CC[C@H]3[C@@H](CCC4CC(C=C(c5cccc6cc(S(=O)(=O)O)ccc56)c5cccc6cc(S(=O)(=O)O)ccc56)CC[C@@]43C)[C@@H]1CC[C@@H]2O (some centres undefined)	83	24	–	–
C[C@@]12CCC[C@H]1[C@@H]1CCC3CC(C=C(c4cccc5cc(S(=O)(=O)O)ccc45)c4cccc5cc(S(=O)(=O)O)ccc45)CC[C@]3(C)[C@H]1CC2 (some centres undefined)	26	17	–	–
O=S(=O)(O)c1ccc2c(C(=CC3CCCCCCCCCCCCCC3)c3cccc4cc(S(=O)(=O)O)ccc34)cccc2c1	130	52	–	–
O=S(=O)(O)c1ccc2c(C(=CCCc3ccc4ccccc4c3)c3cccc4cc(S(=O)(=O)O)ccc34)cccc2c1	> 350	> 170	–	–
CC(C)CCCC(C)[C@H]1CC[C@H]2[C@@H]3CCC4CC(CCC=C(c5cccc6cc(S(=O)(=O)O)ccc56)c5cccc6cc(S(=O)(=O)O)ccc56)CC[C@]4(C)[C@H]3CC[C@]12C (stereo in doubt; 1401)	9	7	–	–
CC(C)CCCC(C)[C@H]1CC[C@H]2[C@@H]3CCC4CC(CCC=C(c5cccc6cc(S(=O)(=O)O)ccc56)c5cccc6cc(S(=O)(=O)O)ccc56)CC[C@]4(C)[C@H]3CC[C@]12C (stereo in doubt)	18	9	–	–
CC(C)CCCC(C)[C@H]1CC[C@H]2[C@@H]3CCC4CC(C=C(c5ccc(S(=O)(=O)O)cc5)c5ccc(S(=O)(=O)O)cc5)CC[C@]4(C)[C@H]3CC[C@]12C (some centres undefined)	10	39	56	–
CC(C)CCCC(C)[C@H]1CC[C@H]2[C@@H]3CCC4CC(C=C(c5cccc6cc(S(=O)(=O)O)ccc56)c5cccc6cc(S(=O)(=O)O)ccc56)CC[C@]4(C)[C@H]3CC[C@]12C (some centres undefined)	16	6	–	–
CC(C)CCCC(C)[C@H]1CC[C@H]2[C@@H]3CC[C@@H]4CC(C=C(c5cccc6cc(S(=O)(=O)O)ccc56)c5cccc6cc(S(=O)(=O)O)ccc56)CC[C@]4(C)[C@H]3CC[C@]12C (some centres undefined)	26	13	–	–
CC(C)CCCC(C)[C@H]1CC[C@H]2[C@@H]3CCC4CC(C=C(c5cccc6ccc(S(=O)(=O)O)cc56)c5cccc6ccc(S(=O)(=O)O)cc56)CC[C@]4(C)[C@H]3CC[C@]12C (some centres undefined)	10	25	125	–
CCCCC/C=C/C/C=C/CCCCCCC=C(c1cccc2cc(S(=O)(=O)O)ccc12)c1cccc2cc(S(=O)(=O)O)ccc12	56	–	–	–
CC(C)CCCC(C)[C@H]1CC[C@H]2[C@@H]3CCC4CC(CCC=C(c5cccc6ccc(S(=O)(=O)O)cc56)c5cccc6ccc(S(=O)(=O)O)cc56)CC[C@]4(C)[C@H]3CC[C@]12C (some centres undefined)	10	7	120	–
C[C@]12CCC(C=C(c3cccc4cc(S(=O)(=O)O)ccc34)c3cccc4cc(S(=O)(=O)O)ccc34)CC1CC[C@@H]1[C@@H]2CC[C@]2(C)C(=O)CC[C@@H]12 (some centres undefined)	107	35	–	–
CC(C)CCCC(C)[C@H]1CC[C@H]2[C@@H]3CCC4CC(CCC=C(c5ccc(S(=O)(=O)O)cc5)c5ccc(S(=O)(=O)O)cc5)CC[C@]4(C)[C@H]3CC[C@]12C (some centres undefined)	13	47	135	–
CCCCCCCCCCCCCCCCC1(C)CCc2c(C)c(OCCC=C(c3cccc4cc(S(=O)(=O)O)ccc34)c3cccc4cc(S(=O)(=O)O)ccc34)c(C)c(C)c2O1 (centres undefined)	25	5	–	–
CC(C)CCCC(C)[C@H]1CC[C@H]2[C@@H]3CCC4CC(C=C(c5cccc(S(=O)(=O)O)c5)c5cccc(S(=O)(=O)O)c5)CC[C@]4(C)[C@H]3CC[C@]12C (some centres undefined)	62	–	–	Flat dose response
O=S(=O)(O)c1ccc2c(C(=CC3CCCCCCCCC3)c3cccc4cc(S(=O)(=O)O)ccc34)cccc2c1	> 400	150	–	–
CC(C)CCCC(C)[C@H]1CC[C@H]2[C@@H]3CCC4CC(OCCC=C(c5cccc6cc(S(=O)(=O)O)ccc56)c5cccc6cc(S(=O)(=O)O)ccc56)CC[C@]4(C)[C@H]3CC[C@]12C (some centres undefined)	31	6	–	–
CCCCCCCC1(C)CCc2c(C)c(OCCC=C(c3cccc4cc(S(=O)(=O)O)ccc34)c3cccc4cc(S(=O)(=O)O)ccc34)c(C)c(C)c2O1 (centres undefined)	41	23	–	–
O=S(=O)(O)c1ccc2c(C(=CCCc3ccc4c(c3)CCc3ccccc3-4)c3cccc4cc(S(=O)(=O)O)ccc34)cccc2c1	292	49	–	–
C=CCO[C@H]1CC[C@H]2[C@@H]3CCC4CC(C=C(c5cccc6cc(S(=O)(=O)O)ccc56)c5cccc6cc(S(=O)(=O)O)ccc56)CC[C@]4(C)[C@H]3CC[C@]12C (some centres undefined)	33	12	100	–
